ChEMBL document CHEMBL1152145, “The discovery of equipotent PPARalpha/gamma dual activators” (Bioorg Med Chem Lett, 2008)

Columns and labels:
[1] = target: T1, Peroxisome proliferator-activated receptor alpha (Mus musculus, UniProt P23204)
T1 sequence (P23204 whole entry): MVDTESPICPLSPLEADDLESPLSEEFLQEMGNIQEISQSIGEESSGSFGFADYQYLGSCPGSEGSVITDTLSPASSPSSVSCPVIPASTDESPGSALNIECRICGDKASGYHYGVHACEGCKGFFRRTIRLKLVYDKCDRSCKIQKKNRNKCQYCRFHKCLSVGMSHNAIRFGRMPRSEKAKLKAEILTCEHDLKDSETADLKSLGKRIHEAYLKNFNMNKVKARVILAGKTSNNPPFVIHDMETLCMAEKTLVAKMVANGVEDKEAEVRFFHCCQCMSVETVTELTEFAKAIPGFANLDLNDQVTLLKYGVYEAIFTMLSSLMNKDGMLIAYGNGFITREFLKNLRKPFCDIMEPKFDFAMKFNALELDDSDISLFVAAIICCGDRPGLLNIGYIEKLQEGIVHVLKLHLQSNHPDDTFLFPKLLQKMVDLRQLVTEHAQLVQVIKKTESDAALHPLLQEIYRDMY
Description: Agonist activity at mouse PPARalpha receptor by cell based transient transfection assay

[2] = target: T2, Peroxisome proliferator-activated receptor alpha (Homo sapiens, UniProt Q07869)
T2 sequence (Q07869 whole entry): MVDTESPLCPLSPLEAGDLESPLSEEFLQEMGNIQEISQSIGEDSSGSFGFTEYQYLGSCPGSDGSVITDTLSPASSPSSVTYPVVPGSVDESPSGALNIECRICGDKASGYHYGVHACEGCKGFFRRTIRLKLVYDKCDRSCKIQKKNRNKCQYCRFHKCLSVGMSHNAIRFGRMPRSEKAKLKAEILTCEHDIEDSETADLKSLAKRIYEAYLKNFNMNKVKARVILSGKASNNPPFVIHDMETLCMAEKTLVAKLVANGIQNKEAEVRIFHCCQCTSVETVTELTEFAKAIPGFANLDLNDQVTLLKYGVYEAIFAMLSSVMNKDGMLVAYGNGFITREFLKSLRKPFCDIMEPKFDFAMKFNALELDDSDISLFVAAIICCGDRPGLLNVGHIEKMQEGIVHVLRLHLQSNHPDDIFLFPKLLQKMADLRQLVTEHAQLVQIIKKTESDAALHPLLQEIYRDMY
Description: Agonist activity at human PPARalpha receptor by cell based transient transfection assay

[3] = target: T3, Peroxisome proliferator-activated receptor gamma (Mus musculus, UniProt P37238)
T3 sequence (P37238 whole entry): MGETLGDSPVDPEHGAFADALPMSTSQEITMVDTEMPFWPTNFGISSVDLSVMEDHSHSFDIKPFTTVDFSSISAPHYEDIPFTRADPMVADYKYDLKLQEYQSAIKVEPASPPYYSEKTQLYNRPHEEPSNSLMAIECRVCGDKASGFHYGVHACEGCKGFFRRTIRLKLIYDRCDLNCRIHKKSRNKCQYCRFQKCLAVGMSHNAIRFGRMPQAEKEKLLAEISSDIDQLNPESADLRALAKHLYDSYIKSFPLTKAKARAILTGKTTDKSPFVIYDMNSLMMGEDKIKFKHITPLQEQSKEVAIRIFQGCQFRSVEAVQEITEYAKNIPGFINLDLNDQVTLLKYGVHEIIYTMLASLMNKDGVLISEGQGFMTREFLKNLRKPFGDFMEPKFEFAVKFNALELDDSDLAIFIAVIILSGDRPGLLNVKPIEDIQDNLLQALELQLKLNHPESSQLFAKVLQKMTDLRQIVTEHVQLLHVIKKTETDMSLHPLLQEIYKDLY
Description: Agonist activity at mouse PPARgamma receptor by cell based transient transfection assay

[4] = target: T4, Peroxisome proliferator-activated receptor gamma (Homo sapiens, UniProt P37231)
T4 sequence (P37231 whole entry): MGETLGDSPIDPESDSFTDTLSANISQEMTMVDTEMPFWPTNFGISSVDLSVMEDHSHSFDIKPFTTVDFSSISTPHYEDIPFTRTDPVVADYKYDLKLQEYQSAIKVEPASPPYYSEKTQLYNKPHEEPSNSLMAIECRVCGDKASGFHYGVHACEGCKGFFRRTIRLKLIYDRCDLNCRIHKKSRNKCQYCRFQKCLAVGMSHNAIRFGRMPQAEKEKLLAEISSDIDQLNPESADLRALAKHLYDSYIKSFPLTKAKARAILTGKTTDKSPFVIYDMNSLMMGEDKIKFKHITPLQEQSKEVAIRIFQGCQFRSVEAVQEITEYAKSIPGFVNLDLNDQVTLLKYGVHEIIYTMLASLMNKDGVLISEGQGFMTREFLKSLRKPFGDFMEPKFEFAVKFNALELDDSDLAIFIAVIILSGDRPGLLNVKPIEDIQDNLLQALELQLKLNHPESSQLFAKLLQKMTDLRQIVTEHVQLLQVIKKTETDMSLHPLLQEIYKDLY
Description: Agonist activity at human PPARgamma receptor by cell based transient transfection assay

[5] = target: T5, Peroxisome proliferator-activated receptor delta (Mus musculus, UniProt P35396)
T5 sequence (P35396 whole entry): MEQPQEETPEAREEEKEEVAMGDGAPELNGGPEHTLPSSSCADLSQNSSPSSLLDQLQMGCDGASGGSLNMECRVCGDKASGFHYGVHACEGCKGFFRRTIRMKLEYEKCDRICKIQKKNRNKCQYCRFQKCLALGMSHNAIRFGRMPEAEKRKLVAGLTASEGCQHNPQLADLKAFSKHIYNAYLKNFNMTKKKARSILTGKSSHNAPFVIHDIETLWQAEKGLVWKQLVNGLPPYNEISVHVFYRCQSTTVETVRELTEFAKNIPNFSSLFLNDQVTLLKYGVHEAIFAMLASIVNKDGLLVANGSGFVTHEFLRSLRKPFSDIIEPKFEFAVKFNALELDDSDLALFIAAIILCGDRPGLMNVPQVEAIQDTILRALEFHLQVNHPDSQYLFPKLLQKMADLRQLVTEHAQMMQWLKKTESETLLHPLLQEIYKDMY
Description: Agonist activity at mouse PPARdelta receptor by cell based transient transfection assay

[6] = target: T6, Peroxisome proliferator-activated receptor delta (Homo sapiens, UniProt Q03181)
T6 sequence (Q03181 whole entry): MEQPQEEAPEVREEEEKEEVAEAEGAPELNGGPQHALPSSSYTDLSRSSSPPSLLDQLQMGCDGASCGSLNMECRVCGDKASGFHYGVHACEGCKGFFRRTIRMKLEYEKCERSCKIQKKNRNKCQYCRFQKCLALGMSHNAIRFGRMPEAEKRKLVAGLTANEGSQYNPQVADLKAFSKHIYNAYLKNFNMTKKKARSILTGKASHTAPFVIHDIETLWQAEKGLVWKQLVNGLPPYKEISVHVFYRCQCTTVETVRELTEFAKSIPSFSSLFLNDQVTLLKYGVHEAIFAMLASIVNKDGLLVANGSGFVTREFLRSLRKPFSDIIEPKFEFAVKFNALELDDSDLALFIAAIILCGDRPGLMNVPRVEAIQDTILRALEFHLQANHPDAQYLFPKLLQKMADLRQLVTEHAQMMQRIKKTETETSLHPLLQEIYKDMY
Description: (§1) Agonist activity at human PPARdelta receptor by cell based transient transfection assay

[7] = Volume of distribution at steady state in CD rat at […], iv and 5 mg/kg, po; type: ADME, organism-based; details: in vivo, read-out: Vdss
[8] = Half life in CD rat at […], iv and 5 mg/kg, po; type: ADME, organism-based; details: in vivo
Rattus norvegicus [9] = experiment: Decrease in insulin level in Zucker fatty (fa/fa) rat at 30 mg/kg, bid after 5 days; type: functional; design: scale not given: the % may be the effect or the level left
[10] = Clearance in CD rat at […], iv and 5 mg/kg, po; type: ADME, organism-based; details: in vivo
Rattus norvegicus [11] = experiment: Decrease in total triglyceride level in Zucker fatty (fa/fa) rat at 10 mg/kg, bid after 5 days; type: functional; design: scale not given: the % may be the effect or the level left
[12] = Bioavailability in CD rat at […], iv and 5 mg/kg, po; type: ADME, organism-based; details: in vivo
Rattus norvegicus [13] = experiment: Decrease in insulin level in Zucker fatty (fa/fa) rat at 10 mg/kg, bid after 5 days; type: functional; design: scale not given: the % may be the effect or the level left
[14] = AUC in CD rat at 5 mg/kg, po; type: ADME, organism-based; design: dose 5 mg/kg, route oral; details: plasma
Rattus norvegicus [15] = experiment: Increase in liver weight in Zucker fatty (fa/fa) rat at 10 mg/kg, bid after 5 days; type: functional
[16] = Cmax in CD rat at […], iv and 5 mg/kg, po; type: ADME, organism-based; details: in vivo
Rattus norvegicus [17] = experiment: Increase in liver weight in Zucker fatty (fa/fa) rat at 30 mg/kg, bid after 5 days; type: functional
Rattus norvegicus [18] = experiment: Decrease in total triglyceride level in Zucker fatty (fa/fa) rat at 30 mg/kg, bid after 5 days; type: functional; design: scale not given: the % may be the effect or the level left
[19] = target: T6, Peroxisome proliferator-activated receptor delta; remark: listed apart in the source
Description: as §1

| EC50 [2] [nM] | EC50 [4] [nM] | EC50 [6] [nM] | SMILES | also measured |
| --- | --- | --- | --- | --- |
| 90 | 30 |  | Cc1cc(CNC(=O)c2cc(-c3ccc(-c4ccccc4C)cc3)n(C)n2)ccc1OC(C)(C)C(=O)O | EC50 [1]: 1800 nM; EC50 [3]: 60 nM; EC50 [5]: > 25000 nM |
| 50 | 30 | 2700 | CCn1nc(-c2ccc(C(C)(C)C)cc2)cc1C(=O)NCc1ccc(OC(C)(C)C(=O)O)c(C)c1 |  |
| 20 | 50 | 1360 | Cc1cc(CNC(=O)c2cc(-c3ccc(C(C)C)cc3)nn2C)ccc1OC(C)(C)C(=O)O |  |
| 4 | 800 | 10000 | Cc1nc(-c2ccc(C(C)(C)C)cc2)sc1C(=O)NCc1ccc(OC(C)(C)C(=O)O)cc1 |  |
| > 25000 |  | > 25000 | COc1cc(CNC(=O)c2cc(-c3ccc(CC(C)C)cc3)n(C)n2)ccc1OC(C)(C)C(=O)O |  |
|  |  |  | C=CCn1nc(C(=O)NCc2ccc(OC(C)(C)C(=O)O)c(C)c2)cc1-c1ccc(C(C)(C)C)cc1 | EC50 [1]: 6000 nM; EC50 [3]: 150 nM; EC50 [5]: > 25000 nM |
| > 25000 | 190 | > 25000 | CCn1nc(C(=O)NCc2ccc(OC(C)(C)C(=O)O)c(OC)c2)cc1-c1ccc(C(C)(C)C)cc1 |  |
|  | 8 | 4850 | Cc1cc(CNC(=O)c2cc(-c3ccc(C(C)C)cc3)n(C)n2)ccc1OC(C)(C)C(=O)O | EC50 [1]: 280 nM; EC50 [3]: 16 nM; EC50 [5]: 7100 nM |
|  |  | > 25000 | C=CCOc1ccc(-c2cc(C(=O)NCc3ccc(OC(C)(C)C(=O)O)c(C)c3)nn2C)cc1 |  |
| 45 | 60 |  | C=CCn1nc(-c2ccc(C(C)(C)C)cc2)cc1C(=O)NCc1ccc(OC(C)(C)C(=O)O)c(C)c1 |  |
| 45 | 50 | 2870 | Cc1cc(CNC(=O)c2cc(-c3ccc(CC(C)C)cc3)nn2C)ccc1OC(C)(C)C(=O)O |  |
| 10 | 15 | > 25000 | CCn1nc(C(=O)NCc2ccc(OC(C)(C)C(=O)O)c(C)c2)cc1-c1ccc(C(C)(C)C)cc1 | EC50 [1]: 2260 nM; EC50 [3]: 36 nM; EC50 [5]: > 25000 nM |
| 160 | 1000 |  | Cn1nc(-c2ccc(C(C)(C)C)cc2)cc1C(=O)NCc1ccc(OC(C)(C)C(=O)O)cc1 | EC50 [19]: 10000 nM |
| 200 |  | 25000 | Cc1cc(CNC(=O)c2cc(-c3ccc(C(C)(C)C)cc3)n(Cc3ccccc3)n2)ccc1OC(C)(C)C(=O)O |  |
| > 25000 | 176 | > 25000 | COc1cc(CNC(=O)c2cc(-c3ccc(C(C)(C)C)cc3)n(C)n2)ccc1OC(C)(C)C(=O)O |  |
| 8 |  |  | Cc1cc(CNC(=O)c2cc(-c3ccc(N4CCCC4)cc3)n(C)n2)ccc1OC(C)(C)C(=O)O |  |

| SMILES | EC50 [2] [nM] | EC50 [4] [nM] | EC50 [6] [nM] | also measured |
| --- | --- | --- | --- | --- |
| Cc1cc(CNC(=O)c2cc(-c3ccc(N4CCOCC4)cc3)n(C)n2)ccc1OC(C)(C)C(=O)O | 85 | 110 | 35 |  |
| Cc1cc(CNC(=O)c2cc(-c3ccc(OCc4ccccc4)cc3)n(C)n2)ccc1OC(C)(C)C(=O)O | > 25000 | 80 | > 25000 |  |
| Cc1cc(CNC(=O)c2cc(-c3ccc(C(C)(C)C)cc3)n(C)n2)ccc1OC(C)(C)C(=O)O | 10 |  | > 10000 | Vd [7]: 0.3 L/kg; EC50 [1]: 640 nM; half-life [8]: 49.8 min; Activity (Rattus norvegicus [9]): 35%; clearance [10]: 17 mL/min/kg; EC50 [3]: 11 nM; Activity (Rattus norvegicus [11]): 57%; bioavailability [12]: 22%; Activity (Rattus norvegicus [13]): 10%; AUC [14]: 1790 ng·h/mL; Activity (Rattus norvegicus [15]): 9%; Cmax [16]: 1130 ng/mL; Activity (Rattus norvegicus [17]): 14%; Activity (Rattus norvegicus [18]): 45%; EC50 [5]: > 25000 nM |
